The source made the active and inactive calls. The rule behind the calls is not given here.
Experiments:
[1] = molecular target: Cyclin-dependent kinase 7/ cyclin H (Homo sapiens, UniProt P50613); assay: Inhibition of CDK7/Cyclin H (unknown origin); format: protein-complex assay
[2] = Metabolic stability in mouse liver microsomes assessed as half life; format: ADME, Microsome
[3] = molecular target: Cyclin-dependent kinase 12 (Homo sapiens) (UniProt Q9NYV4); assay: Binding affinity to CDK12 in CDK12/CyclinK complex (unknown origin) assessed as increase in CDK12 mass at 10-fold excess concentration incubated for 1 hr by LC-MS analysis
Chain of Cyclin-dependent kinase 12 (Homo sapiens) (Q9NYV4 whole entry, looked up): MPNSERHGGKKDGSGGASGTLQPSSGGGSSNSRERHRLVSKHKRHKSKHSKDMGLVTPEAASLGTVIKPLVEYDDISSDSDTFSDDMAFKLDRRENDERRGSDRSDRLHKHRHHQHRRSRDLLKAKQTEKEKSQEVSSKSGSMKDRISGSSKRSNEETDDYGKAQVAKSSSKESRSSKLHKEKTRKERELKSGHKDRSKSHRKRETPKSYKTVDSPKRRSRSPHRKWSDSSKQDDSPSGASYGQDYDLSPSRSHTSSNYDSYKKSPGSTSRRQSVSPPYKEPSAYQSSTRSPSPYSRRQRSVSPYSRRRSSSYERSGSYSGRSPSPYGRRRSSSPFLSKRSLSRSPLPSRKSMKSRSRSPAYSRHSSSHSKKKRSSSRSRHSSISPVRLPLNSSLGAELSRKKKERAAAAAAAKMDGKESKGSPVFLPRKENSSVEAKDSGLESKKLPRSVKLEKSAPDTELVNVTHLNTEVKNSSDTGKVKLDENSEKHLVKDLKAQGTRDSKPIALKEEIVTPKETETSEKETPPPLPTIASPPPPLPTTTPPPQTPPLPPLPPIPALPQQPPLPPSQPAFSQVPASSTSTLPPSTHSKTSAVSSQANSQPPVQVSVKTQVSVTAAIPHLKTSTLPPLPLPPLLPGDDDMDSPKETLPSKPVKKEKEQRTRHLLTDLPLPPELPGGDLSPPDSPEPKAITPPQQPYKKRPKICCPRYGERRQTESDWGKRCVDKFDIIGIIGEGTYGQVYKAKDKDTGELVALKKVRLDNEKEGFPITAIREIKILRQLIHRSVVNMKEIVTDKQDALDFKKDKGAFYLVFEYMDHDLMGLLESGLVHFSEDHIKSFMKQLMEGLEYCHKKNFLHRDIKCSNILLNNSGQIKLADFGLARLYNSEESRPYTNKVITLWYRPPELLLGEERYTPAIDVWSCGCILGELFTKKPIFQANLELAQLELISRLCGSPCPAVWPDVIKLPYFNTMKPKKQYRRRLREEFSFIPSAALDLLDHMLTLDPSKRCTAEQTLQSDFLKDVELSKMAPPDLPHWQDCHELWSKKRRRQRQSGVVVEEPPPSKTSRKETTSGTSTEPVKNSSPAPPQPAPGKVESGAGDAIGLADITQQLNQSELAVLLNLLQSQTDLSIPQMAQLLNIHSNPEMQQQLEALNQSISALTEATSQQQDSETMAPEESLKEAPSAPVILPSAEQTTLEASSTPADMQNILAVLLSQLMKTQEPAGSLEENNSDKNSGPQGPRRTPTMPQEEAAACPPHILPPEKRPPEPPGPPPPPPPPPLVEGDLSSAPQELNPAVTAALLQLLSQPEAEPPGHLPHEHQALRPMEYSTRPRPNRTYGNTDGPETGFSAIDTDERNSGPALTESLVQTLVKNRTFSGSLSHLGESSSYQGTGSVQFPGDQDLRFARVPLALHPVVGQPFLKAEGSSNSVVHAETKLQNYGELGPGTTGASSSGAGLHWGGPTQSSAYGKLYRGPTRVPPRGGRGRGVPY

[4] = molecular target: T1, Cyclin-dependent kinase 12/13 (Homo sapiens) (UniProt Q14004+Q9NYV4); assay: Inhibition of CDK12/13 in human jurkat cells assessed as reduction in RNA polymerase 2 CTD phosphorylation at Ser2 residue at 1 uM measured after 6 hrs by immunoblotting analysis; format: cell-based
[5] = molecular target: T1, Cyclin-dependent kinase 12/13 (Homo sapiens); assay: Inhibition of CDK12/13 in human Jurkat cells assessed as BRCA1 gene expression at 0.5 to 1 uM incubated for 4 hrs by RT-qPCR analysis; format: cell-based; set-up: scale not given: the % may be the effect or the level left; conditions: dose 0.5-1 µM
[6] = Antiproliferative activity against human Kelly cells harboring CDK12 C1039F mutant assessed as reduction in cell viability incubated for 72 hrs by CellTiter-Glo assay; format: functional, cell-based
[7] = Tmax in Swiss albino mouse at 10 mg/kg, po measured upto 24 hrs by LC-MS/MS analysis; format: ADME, organism-based; conditions: in vivo
[8] = Volume of distribution at steady state in Swiss albino mouse at 3 mg/kg, iv measured upto 24 hrs by LC-MS/MS analysis; format: ADME, organism-based; conditions: in vivo
[9] = system: TC-71; assay: Antitumor activity against human TC71 cells xenografted in nude mouse assessed as suppression of tumor growth at 10 mg/kg, ip for 21 days by caliper analysis; format: functional, organism-based; conditions: time 21.0 day
[10] = molecular target: Ribosomal protein S6 kinase alpha-3 (Homo sapiens, UniProt P51812); assay: Inhibition of ADP(ATP)-biotin probe binding to RSK2 domain 1 in human Kelly cells at 1 uM incubated for 6 hrs by KiNativ profiling analysis; format: cell-based
Chain of Ribosomal protein S6 kinase alpha-3 (P51812 whole entry, the tested form may be a part): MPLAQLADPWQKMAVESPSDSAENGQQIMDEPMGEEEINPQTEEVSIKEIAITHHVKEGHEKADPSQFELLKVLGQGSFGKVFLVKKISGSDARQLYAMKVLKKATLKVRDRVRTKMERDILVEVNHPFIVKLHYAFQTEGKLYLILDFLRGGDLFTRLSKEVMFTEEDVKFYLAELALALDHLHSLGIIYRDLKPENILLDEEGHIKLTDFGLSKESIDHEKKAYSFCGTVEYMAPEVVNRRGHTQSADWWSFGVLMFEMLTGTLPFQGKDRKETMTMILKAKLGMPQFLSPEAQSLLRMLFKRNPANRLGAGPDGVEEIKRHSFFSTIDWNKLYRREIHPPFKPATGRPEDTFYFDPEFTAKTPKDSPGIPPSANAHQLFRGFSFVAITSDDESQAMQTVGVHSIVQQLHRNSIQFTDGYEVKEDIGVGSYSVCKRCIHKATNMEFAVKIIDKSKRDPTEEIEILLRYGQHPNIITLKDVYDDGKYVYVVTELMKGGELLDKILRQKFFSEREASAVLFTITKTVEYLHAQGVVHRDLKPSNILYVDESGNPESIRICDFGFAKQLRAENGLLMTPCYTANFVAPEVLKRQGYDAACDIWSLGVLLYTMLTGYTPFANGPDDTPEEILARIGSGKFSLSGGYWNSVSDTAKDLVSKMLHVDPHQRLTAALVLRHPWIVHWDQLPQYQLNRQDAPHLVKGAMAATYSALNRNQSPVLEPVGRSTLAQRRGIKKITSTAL

[11] = molecular target: Ribosomal protein S6 kinase alpha-1 (Homo sapiens) (UniProt Q15418); assay: Inhibition of ADP(ATP)-biotin probe binding to RSK1 domain 1 in human Kelly cells at 1 uM incubated for 6 hrs by KiNativ profiling analysis; format: cell-based
[12] = molecular target: Ribosomal protein S6 kinase alpha-2 (Homo sapiens) (UniProt Q15349); assay: Inhibition of ADP(ATP)-biotin probe binding to RSK3 domain 1 in human Kelly cells at 1 uM incubated for 6 hrs by KiNativ profiling analysis; format: cell-based
[13] = molecular target: Mitogen-activated protein kinase 8 (Homo sapiens) (UniProt P45983); assay: Inhibition of ADP(ATP)-biotin probe binding to JNK1 in human Kelly cells at 1 uM incubated for 6 hrs by KiNativ profiling analysis; format: cell-based
Chain of Mitogen-activated protein kinase 8 (Homo sapiens) (P45983 whole entry): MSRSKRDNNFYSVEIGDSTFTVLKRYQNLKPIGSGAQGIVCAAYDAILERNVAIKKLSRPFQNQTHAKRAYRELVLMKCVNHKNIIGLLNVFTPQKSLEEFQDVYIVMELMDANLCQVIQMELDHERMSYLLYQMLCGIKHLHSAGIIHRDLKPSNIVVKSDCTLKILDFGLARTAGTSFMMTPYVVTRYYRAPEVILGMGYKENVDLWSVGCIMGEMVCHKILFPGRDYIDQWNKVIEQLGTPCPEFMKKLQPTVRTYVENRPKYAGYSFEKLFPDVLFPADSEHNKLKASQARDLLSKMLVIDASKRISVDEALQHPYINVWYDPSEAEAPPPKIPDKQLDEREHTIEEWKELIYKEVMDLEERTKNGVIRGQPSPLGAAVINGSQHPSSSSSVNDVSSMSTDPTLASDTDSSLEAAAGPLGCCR

[14] = molecular target: Mitogen-activated protein kinase 9 (Homo sapiens) (UniProt P45984); assay: Inhibition of ADP(ATP)-biotin probe binding to JNK2 in human Kelly cells at 1 uM incubated for 6 hrs by KiNativ profiling analysis; format: cell-based
Chain of Mitogen-activated protein kinase 9 (Homo sapiens) (P45984 whole entry, looked up): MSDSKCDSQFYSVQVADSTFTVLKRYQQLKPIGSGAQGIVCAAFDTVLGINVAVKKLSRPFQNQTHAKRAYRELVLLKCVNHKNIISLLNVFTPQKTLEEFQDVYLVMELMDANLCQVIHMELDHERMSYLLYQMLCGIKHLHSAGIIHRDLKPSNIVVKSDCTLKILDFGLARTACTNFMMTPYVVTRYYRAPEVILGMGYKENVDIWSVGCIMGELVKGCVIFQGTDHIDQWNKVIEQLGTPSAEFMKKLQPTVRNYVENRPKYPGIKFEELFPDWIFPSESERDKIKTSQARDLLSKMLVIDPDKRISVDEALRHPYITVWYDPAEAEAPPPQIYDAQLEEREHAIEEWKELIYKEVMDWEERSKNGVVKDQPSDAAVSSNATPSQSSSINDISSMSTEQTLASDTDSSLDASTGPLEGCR

[15] = molecular target: Mitogen-activated protein kinase 10 (Homo sapiens) (UniProt P53779); assay: Inhibition of ADP(ATP)-biotin probe binding to JNK3 in human Kelly cells at 1 uM incubated for 6 hrs by KiNativ profiling analysis; format: cell-based
Chain of Mitogen-activated protein kinase 10 (Homo sapiens) (P53779 whole entry): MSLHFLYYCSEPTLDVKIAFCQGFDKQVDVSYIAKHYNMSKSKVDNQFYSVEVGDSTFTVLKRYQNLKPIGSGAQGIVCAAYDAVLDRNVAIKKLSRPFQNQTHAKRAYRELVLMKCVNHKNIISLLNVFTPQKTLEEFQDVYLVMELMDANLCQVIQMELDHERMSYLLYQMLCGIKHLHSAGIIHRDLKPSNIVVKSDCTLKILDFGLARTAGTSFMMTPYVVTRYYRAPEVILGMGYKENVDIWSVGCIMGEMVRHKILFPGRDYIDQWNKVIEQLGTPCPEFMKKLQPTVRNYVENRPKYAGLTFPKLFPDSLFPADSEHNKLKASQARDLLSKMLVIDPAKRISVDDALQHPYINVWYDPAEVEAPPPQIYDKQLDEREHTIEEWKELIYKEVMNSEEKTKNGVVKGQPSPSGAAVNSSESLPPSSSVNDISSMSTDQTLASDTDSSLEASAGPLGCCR

[16] = molecular target: Serine/threonine-protein kinase 16 (Homo sapiens) (UniProt O75716); assay: Inhibition of ADP(ATP)-biotin probe binding to MPSK1 in human Kelly cells at 1 uM incubated for 6 hrs by KiNativ profiling analysis; format: cell-based
Chain of Serine/threonine-protein kinase 16 (Homo sapiens) (O75716 whole entry): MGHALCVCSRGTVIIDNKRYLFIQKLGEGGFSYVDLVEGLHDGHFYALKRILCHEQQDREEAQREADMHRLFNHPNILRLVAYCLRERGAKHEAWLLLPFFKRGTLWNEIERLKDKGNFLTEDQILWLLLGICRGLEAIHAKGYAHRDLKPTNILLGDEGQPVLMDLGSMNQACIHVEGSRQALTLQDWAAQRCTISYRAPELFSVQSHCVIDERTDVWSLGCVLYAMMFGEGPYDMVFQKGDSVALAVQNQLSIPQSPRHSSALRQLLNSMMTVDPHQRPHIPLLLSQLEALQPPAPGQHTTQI

[17] = molecular target: Serine/threonine-protein kinase 10 (Homo sapiens) (UniProt O94804); assay: Inhibition of ADP(ATP)-biotin probe binding to LOK in human Kelly cells at 1 uM incubated for 6 hrs by KiNativ profiling analysis; format: cell-based
Chain of Serine/threonine-protein kinase 10 (Homo sapiens) (O94804 whole entry, looked up): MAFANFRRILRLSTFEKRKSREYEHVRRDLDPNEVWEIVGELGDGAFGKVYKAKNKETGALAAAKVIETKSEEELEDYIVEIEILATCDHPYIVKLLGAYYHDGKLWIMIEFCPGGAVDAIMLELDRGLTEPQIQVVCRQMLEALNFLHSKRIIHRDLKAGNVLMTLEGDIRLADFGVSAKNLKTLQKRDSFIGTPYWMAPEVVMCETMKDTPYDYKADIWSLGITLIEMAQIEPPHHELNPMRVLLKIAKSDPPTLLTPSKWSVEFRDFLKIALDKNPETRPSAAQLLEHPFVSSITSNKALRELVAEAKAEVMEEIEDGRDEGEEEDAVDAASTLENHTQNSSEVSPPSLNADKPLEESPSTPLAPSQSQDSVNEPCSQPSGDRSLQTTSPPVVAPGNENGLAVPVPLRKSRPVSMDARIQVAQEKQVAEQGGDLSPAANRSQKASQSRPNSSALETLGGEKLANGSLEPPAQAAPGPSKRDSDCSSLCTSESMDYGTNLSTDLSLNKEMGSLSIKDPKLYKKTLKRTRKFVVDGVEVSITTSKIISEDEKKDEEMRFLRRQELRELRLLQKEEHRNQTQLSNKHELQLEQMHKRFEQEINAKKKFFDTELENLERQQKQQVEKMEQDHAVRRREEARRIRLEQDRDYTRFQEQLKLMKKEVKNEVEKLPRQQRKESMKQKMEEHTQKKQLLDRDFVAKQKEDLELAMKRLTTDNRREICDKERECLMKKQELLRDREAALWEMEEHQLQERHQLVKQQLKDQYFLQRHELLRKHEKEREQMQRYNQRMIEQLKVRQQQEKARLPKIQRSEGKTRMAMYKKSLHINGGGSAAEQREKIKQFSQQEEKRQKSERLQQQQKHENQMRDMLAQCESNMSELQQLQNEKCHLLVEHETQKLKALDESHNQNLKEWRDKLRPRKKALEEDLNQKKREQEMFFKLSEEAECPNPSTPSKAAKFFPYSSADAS

[18] = molecular target: T1, Cyclin-dependent kinase 12/13 (Homo sapiens); assay: Inhibition of THZ1-biotin binding from CDK12/13 in human Jurkat cells incubated for 3 hrs followed by drug wash-out for 24 hrs by competitive pull down assay; format: cell-based
[19] = molecular target: T1, Cyclin-dependent kinase 12/13 (Homo sapiens); assay: Inhibition of CDK12/13 in human jurkat cells assessed as reduction in RNA polymerase 2 CTD phosphorylation at Ser2 residue at 2.5 uM measured after 6 hrs by immunoblotting analysis; format: cell-based
[20] = Downregulation of RNA polymerase 2 CTD phosphorylation at Ser7 residue in human Jurkat cells at 2.5 uM incubated for 6 hrs by immunoblotting analysis; format: functional
[21] = Downregulation of RNA polymerase 2 in human Jurkat cells at 0.5 uM measured after 6 hrs by immunoblotting analysis; format: functional
[22] = Antiproliferative activity against human Kelly cells harboring wild type CDK12 assessed as reduction in cell viability incubated for 72 hrs by CelTiter-Glo assay; format: functional, cell-based
[23] = Selectivity ratio of IC50 for human Kelly cells harboring CDK12 C1039F mutant to IC50 for human Kelly cells harboring wild type CDK12; format: functional
[24] = molecular target: DNA-dependent protein kinase catalytic subunit (Homo sapiens, UniProt P78527); assay: Inhibition of human DNAPK by Invitrogen ADAPTA or Z'LYTE biochemical kinase assay

For `CN(C)C/C=C/C(=O)Nc1ccc(O[C@@H]2CCC[C@@H](Nc3ncc(Cl)c(-c4c[nH]c5ccccc45)n3)C2)cc1`, which IC50 [1] is on record?
Its IC50 is 187 nM.

And the t1/2 [2]?
Its t1/2 is 8 min.

And the Activity [3]?
The Activity was “Active”.

What about the inhibition [4] of the same molecule?
Its inhibition is 78%.

What about the Activity [5] of the same molecule?
The Activity was 30%.

What about the IC50 [6] of the same molecule?
The IC50 was 225 nM.

And the Tmax [7]?
The Tmax was 2 h.

What about the Vdss [8] of the same molecule?
The Vdss was 3.9 L/kg.

What about the Activity [9] of the same molecule?
Its Activity is “Active”.

What about the inhibition [10] of the same molecule?
The inhibition was 46%.

What about the inhibition [11] of the same molecule?
Its inhibition is 35.4%.

What about the inhibition [12] of the same molecule?
The inhibition was 41.6%.

What about the inhibition [13] of the same molecule?
The inhibition was 45.9%.

What about the inhibition [14] of the same molecule?
Its inhibition is 45.9%.

What about the inhibition [15] of the same molecule?
Its inhibition is 45.9%.

What about the inhibition [16] of the same molecule?
The inhibition was 42.4%.

And the inhibition [17]?
Its inhibition is 33.9%.

What about the inhibition [18] of the same molecule?
The inhibition was “Active”.

And the inhibition [19]?
Its inhibition is 87%.

What about the inhibition at 2.5 µM [20] of the same molecule?
Its inhibition at 2.5 µM is 58%.

What about the inhibition at 0.5 µM [21] of the same molecule?
Its inhibition at 0.5 µM is 0%.

What about the IC50 [22] of the same molecule?
The IC50 was 42.2 nM.

And the “Ratio IC50” value [23]?
Its value is 5.

What about the IC50 [24] of the same molecule?
Its IC50 is greater than 10000 nM.
